Values quoted from earlier work in patent US9993449B2, “(S)-3-amino-4-(difluoromethylenyl)cyclopent-1-ene-1-carboxylic acid, and related compounds as GABA aminotransferase inactivators for the treatment of epilepsy, addiction and hepatocellular carcinoma” (NORTHWESTERN UNIVERSITY, priority 2015, dated 2018).

Assays:
[1] = test system: aspartate aminotransferase (Asp-AT); conditions: reported; cited from earlier work
[2] = test system: alanine aminotransferase (Ala-AT); conditions: reported; cited from earlier work
[3] = target: T1, ornithine aminotransferase (OAT) (Homo sapiens, UniProt P04181); conditions: reported; cited from earlier work
T1 sequence (P04181 26-439): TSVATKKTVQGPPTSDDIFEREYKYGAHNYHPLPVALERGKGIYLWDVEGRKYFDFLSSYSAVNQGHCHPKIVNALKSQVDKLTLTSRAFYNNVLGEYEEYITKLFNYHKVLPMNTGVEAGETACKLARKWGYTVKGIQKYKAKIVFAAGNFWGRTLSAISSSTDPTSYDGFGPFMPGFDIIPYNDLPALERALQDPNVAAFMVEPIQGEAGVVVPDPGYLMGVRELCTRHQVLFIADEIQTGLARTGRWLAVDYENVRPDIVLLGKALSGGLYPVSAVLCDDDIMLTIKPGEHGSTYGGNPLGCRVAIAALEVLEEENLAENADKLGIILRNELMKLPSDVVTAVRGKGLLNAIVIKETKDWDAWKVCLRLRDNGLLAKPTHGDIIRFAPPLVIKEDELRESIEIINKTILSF

hERG channel = target: T2, hERG channel (Homo sapiens, UniProt Q12809); conditions: earlier finding for CPP-115; cited from earlier work
T2 construct: host or cells: CHO-K1

CYP1A = target: T3, CYP1A (Homo sapiens, UniProt P05177); conditions: earlier finding for CPP-115; cited from earlier work
T3 construct: tissue Eurofins Panlabs; host or cells: human liver microsomes
T3 sequence (P05177 1-516): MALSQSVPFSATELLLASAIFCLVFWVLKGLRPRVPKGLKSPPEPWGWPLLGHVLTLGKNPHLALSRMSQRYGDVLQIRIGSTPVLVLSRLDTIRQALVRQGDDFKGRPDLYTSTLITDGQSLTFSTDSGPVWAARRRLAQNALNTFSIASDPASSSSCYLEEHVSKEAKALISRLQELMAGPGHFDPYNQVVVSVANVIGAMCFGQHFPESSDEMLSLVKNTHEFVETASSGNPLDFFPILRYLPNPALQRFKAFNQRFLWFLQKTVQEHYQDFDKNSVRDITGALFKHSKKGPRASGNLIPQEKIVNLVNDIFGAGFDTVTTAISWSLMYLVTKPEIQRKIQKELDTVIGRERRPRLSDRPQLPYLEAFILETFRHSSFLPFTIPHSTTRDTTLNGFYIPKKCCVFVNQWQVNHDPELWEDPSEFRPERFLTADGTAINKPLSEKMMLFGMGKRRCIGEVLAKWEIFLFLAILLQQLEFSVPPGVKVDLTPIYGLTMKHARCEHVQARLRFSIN

CYP2B6 = target: T4, CYP2B6 (Homo sapiens, UniProt P20813); conditions: earlier finding for CPP-115; cited from earlier work
T4 construct: tissue Eurofins Panlabs; host or cells: human liver microsomes
T4 sequence (P20813 1-491): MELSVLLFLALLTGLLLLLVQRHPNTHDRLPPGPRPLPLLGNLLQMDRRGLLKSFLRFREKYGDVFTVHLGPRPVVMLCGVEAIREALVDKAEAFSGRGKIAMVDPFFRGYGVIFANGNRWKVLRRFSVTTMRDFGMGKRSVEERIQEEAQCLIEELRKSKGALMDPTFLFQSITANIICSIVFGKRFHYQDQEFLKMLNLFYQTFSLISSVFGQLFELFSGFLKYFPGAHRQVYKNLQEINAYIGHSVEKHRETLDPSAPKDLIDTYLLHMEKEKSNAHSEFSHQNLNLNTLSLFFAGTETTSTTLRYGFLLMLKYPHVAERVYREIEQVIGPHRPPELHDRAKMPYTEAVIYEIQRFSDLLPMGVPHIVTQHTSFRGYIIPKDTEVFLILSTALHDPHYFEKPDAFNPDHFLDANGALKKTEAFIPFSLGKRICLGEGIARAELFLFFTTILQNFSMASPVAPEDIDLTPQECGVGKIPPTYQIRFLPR

CYP2C8 = target: T5, CYP2C8 (Homo sapiens, UniProt P10632); conditions: earlier finding for CPP-115; cited from earlier work
T5 construct: tissue Eurofins Panlabs; host or cells: human liver microsomes
T5 sequence (P10632 1-490): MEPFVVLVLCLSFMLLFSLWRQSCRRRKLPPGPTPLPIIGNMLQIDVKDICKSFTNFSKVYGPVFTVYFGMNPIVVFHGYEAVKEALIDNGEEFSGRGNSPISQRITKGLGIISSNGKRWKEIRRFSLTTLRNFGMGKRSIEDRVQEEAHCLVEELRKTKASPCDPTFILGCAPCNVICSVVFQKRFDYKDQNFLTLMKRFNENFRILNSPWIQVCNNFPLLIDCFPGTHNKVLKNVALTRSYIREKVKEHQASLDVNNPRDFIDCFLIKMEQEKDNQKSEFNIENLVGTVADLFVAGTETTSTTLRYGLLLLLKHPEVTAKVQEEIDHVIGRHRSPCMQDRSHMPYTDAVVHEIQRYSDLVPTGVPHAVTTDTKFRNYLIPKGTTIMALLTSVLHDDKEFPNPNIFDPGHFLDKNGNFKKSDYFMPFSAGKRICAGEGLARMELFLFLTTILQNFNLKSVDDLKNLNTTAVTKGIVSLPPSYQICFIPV

CYP2C9 = target: T6, CYP2C9 (Homo sapiens, UniProt P11712); conditions: earlier finding for CPP-115; cited from earlier work
T6 construct: tissue Eurofins Panlabs; host or cells: human liver microsomes

CYP2C19 = target: T7, CYP2C19 (Homo sapiens, UniProt P33261); conditions: earlier finding for CPP-115; cited from earlier work
T7 construct: tissue Eurofins Panlabs; host or cells: human liver microsomes

CYP2D6 = target: T8, CYP2D6 (Homo sapiens, UniProt P10635); conditions: earlier finding for CPP-115; cited from earlier work
T8 construct: tissue Eurofins Panlabs; host or cells: human liver microsomes

CYP3A = conditions: earlier finding for CPP-115; cited from earlier work
striatal dopamine levels = conditions: previous similar tests; cited from earlier work
[4] = test system: glucose metabolism in the hippocampus; conditions: previous similar tests; cited from earlier work
infantile spasms = conditions: multiple-hit rat model; cited from earlier work
[5] = in vivo; cited from earlier work
[6] = test system: release of dopamine in the NAcc; conditions: freely moving rats after 20 mg/kg cocaine; cited from earlier work
cocaine addiction = cocaine addiction in humans, 9-week double-blind trial; cited from earlier work
[7] = long-term administration; cited from earlier work
addiction = conditions: cocaine, nicotine, methamphetamine, heroin, and alcohol; cited from earlier work

T6 sequence (P11712 whole entry): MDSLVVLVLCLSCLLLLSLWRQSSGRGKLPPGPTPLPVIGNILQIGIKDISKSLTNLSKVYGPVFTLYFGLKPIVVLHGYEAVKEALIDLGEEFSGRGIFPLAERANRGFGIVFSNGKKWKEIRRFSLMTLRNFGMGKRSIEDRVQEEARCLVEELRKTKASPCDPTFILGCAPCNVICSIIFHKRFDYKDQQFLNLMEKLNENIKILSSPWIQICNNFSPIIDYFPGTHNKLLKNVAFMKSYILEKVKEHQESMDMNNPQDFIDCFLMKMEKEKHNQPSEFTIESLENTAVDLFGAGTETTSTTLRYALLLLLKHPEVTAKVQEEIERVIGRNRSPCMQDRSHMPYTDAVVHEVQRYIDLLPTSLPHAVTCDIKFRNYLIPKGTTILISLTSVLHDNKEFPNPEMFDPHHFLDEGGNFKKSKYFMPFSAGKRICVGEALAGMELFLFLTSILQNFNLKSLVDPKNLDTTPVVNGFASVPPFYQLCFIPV
T8 sequence (P10635 whole entry): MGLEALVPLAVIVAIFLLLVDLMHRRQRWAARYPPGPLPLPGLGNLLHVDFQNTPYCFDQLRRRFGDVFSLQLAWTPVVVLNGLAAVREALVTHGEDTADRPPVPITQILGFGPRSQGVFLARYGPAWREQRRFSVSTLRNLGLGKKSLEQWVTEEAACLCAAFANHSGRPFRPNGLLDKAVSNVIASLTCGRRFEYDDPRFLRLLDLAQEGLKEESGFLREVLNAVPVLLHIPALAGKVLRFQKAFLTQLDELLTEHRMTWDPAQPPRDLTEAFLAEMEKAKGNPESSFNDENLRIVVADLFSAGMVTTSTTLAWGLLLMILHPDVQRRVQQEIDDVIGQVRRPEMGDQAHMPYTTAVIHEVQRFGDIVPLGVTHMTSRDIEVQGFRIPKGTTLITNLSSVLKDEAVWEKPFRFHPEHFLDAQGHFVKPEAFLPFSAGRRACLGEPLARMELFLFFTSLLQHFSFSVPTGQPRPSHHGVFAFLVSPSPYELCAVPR
T7 sequence (P33261 whole entry): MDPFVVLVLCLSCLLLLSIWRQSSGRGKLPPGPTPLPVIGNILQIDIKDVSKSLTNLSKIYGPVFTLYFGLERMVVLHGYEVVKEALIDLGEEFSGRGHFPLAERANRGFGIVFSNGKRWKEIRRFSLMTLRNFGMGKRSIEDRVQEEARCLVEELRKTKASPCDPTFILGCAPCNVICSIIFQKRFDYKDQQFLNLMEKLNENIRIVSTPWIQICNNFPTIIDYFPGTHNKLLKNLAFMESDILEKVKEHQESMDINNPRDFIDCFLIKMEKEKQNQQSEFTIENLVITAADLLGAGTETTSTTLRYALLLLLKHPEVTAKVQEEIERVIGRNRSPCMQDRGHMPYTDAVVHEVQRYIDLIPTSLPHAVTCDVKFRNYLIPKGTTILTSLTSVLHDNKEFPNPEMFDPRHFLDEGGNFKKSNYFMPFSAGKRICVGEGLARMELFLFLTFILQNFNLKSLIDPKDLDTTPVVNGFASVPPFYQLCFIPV
T2 sequence (Q12809 whole entry): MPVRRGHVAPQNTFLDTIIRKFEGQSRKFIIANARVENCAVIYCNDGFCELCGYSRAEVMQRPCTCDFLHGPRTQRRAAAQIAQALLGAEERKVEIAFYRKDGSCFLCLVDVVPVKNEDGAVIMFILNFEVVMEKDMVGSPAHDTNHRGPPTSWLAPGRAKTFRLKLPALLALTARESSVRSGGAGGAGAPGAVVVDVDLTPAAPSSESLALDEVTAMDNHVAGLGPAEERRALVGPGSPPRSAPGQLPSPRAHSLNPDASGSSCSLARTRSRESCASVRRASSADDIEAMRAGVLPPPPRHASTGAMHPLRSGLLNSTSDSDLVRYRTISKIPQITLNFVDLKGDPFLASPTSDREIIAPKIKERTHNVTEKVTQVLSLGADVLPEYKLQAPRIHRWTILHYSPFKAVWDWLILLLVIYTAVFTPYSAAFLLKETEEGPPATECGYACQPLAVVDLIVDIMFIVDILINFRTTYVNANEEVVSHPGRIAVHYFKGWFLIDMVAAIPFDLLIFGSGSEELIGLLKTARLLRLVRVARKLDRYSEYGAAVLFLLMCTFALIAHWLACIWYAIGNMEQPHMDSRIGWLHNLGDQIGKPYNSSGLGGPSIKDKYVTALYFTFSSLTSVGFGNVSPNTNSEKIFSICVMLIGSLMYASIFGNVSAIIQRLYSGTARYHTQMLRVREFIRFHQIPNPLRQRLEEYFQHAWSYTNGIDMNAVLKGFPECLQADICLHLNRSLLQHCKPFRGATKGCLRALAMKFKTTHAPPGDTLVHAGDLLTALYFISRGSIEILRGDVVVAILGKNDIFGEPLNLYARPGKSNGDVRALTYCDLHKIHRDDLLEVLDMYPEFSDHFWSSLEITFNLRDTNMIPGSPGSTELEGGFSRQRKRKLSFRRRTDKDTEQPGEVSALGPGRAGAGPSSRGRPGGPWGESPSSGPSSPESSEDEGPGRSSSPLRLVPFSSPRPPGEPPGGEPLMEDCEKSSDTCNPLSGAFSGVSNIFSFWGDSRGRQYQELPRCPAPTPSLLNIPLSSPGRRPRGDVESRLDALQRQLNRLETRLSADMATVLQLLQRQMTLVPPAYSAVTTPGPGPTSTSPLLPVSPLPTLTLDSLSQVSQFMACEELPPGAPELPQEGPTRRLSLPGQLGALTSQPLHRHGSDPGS

| SMILES | inactivation or inhibition of Asp-AT [1] | inactivation or inhibition of Ala-AT [2] | KI (inactivation) [3] [µM] | inhibition of the activity of the hERG channel (hERG channel) | inhibition or induction of CYP 1A (CYP1A) | inhibition or induction of CYP 2B6 (CYP2B6) | inhibition or induction of CYP 2C8 (CYP2C8) | inhibition or induction of CYP 2C9 (CYP2C9) | inhibition or induction of CYP 2C19 (CYP2C19) | inhibition or induction of CYP 2D6 (CYP2D6) | inhibition or induction of CYP 3A (CYP3A) | cocaine-induced increases in striatal dopamine (striatal dopamine levels) | hippocampal metabolism (cocaine-induced) [4] | duration of spasm suppression versus vigabatrin (infantile spasms) | margin of safety versus vigabatrin [5] | retinal toxicity liability versus vigabatrin [5] | times more potent than vigabatrin in reducing the release of dopamine in the NAcc [6] [times] | patients achieving abstinence (cocaine addiction) | epilepsy patients with permanent vision loss [7] | treatment of addiction in animal models (addiction) |
| --- | --- | --- | --- | --- | --- | --- | --- | --- | --- | --- | --- | --- | --- | --- | --- | --- | --- | --- | --- | --- |
| N[C@H]1C[C@@H](C(=O)O)CC1=C(F)F [CPP-115, (1S,3S)-3-amino-4-difluoromethylenyl-1-cyclopentanoic acid] | not to inactivate or inhibit | not to inactivate or inhibit | 116 | does not inhibit | does not inhibit or induce | does not inhibit or induce | does not inhibit or induce | does not inhibit or induce | does not inhibit or induce | does not inhibit or induce | does not inhibit or induce | blocked | did not completely block | longer spasm suppression | much larger | considerably lower | > 300 |  |  |  |
| C=CC(N)CCC(=O)O (stereo not shown) [vigabatrin] |  |  |  |  |  |  |  |  |  |  |  | blocked | did not completely block |  |  |  |  | up to 28% | 25-40% | successful |
